According to patent publication US8399214B2 (Evonik Degussa GmbH, priority 2005, dated 2013):
Values joined by “and” are separate entries in the source; they are usually repeats but may differ in a detail not shown here. Equal entries are not always repeated. Where two headings read alike, the source gives them in different places.

What was measured:
microorganisms = conditions: gaseous state; cited from earlier work
[1] = system: C. glutamicum M2014 (parent); test: Test tube growth in methionine-free medium, DMDS added directly; conditions: M2014; MF + Met 40 mg/l; 36 hours at 30° C.
Description: (§1) M2014 was transformed with plasmid pOM86 (FIG. 9) (SEQ ID NO:8) to yield a “Campbell in” strain. The “Campbell in” strain was then “Cambelled out” to yield a “Campbell out” strain named OM63.

[2] = system: C. glutamicum OM63 (ΔmetF); type: cell-based; conditions: MF + Met 40 mg/l, 36 hours at 30° C.
Description: as §1

C. glutamicum M2014 [3] = test: Test tube growth in methionine-free medium with Amberlite XAD4 as DMDS delivery system; conditions: M2014, XAD4
Procedure: (§2) To this end, test tube experiments using 5 ml of medium were performed on OM63 and M2014.
(§3) To each test tube 100 μl of a sterile suspension of XAD4 in water (50% v/v) was added.

[4] = system: C. glutamicum OM63 (ΔmetF)
Procedure: as §2, §3

[5] = system: C. glutamicum OM101C (ΔmetF, ΔmetB); type: cell-based; conditions: met 100 mg/l, XAD4, 24 hours at 30° C.
Procedure: as §3

[6] = system: C. glutamicum OM246C (ΔmetE, ΔmetH); type: cell-based; conditions: met 100 mg/l, XAD4, 24 hours at 30° C.
Procedure: as §3

C. glutamicum M2014 [7] = test: Test tube growth in methionine-free medium with mineral oil as DMDS delivery system; conditions: MF + Met 100 mg/l, no oil, 24 hours at 30° C.
Description: (§4) Other possible delivery systems include synthetic oils, organic solvents, chloro-carbons, fluoro-carbons, or chloro-fluoro-carbons.

[8] = system: C. glutamicum OM246C (ΔmetH, ΔmetE); conditions: OM246C, 24 hours at 30° C.
Description: as §4

C. glutamicum M2014 [9] = test: Test tube growth in methionine-free medium with canola oil as DMDS delivery system; type: cell-based; conditions: 24 hours at 30° C.
Description: as §4

[10] = system: C. glutamicum OM246C (ΔmetH, ΔmetE); type: cell-based; conditions: 24 hours at 30° C.
Description: as §4

[11] = system: C. glutamicum OM158 (ΔmetF, ΔmetY); conditions: Met 100 mg/ml, XAD4, 60 hours at 30° C.
Procedure: (§5) A test tube experiment was performed with M2014 derivatives that contain different combinations of deletions of metY, metB, and metF. […] The inoculum was approximately 5×10^3 cells per tube. Cells were grown at 30° C. in a platform shaker for 60 hours, and cell densities were measured at OD600.

[12] = system: C. glutamicum OM101 (ΔmetF, ΔmetB); conditions: Met 100 mg/ml, XAD4, 60 hours at 30° C.
Procedure: as §5

[13] = system: C. glutamicum OM174 (ΔmetF, ΔmetB, ΔmetY); conditions: Met 100 mg/ml, XAD4, 60 hours at 30° C.
Procedure: as §5

In the case of `C[Se][Se]C` [DMDSe, dimethyldiselenide], the toxicity to microorganisms (microorganisms) is listed as “toxic to microorganisms in a gaseous state”.

For `CSCC[C@H](N)C(=O)O` [Met, methionine, reference compound], the “Optical densities at 600 nm” value [1] was 5.8, the “Optical densities at 600 nm” value [2] was 5.2 and the “Optical densities at 600 nm” value (C. glutamicum M2014 [3]; Met 40 mg/l, 42 hours at 30° C.) was 7.1. The OD600 (C. glutamicum M2014 [3]; Met 100 mg/ml, 60 hours at 30° C.) was 2.2 and 2.3, the “Optical densities at 600 nm” value (C. glutamicum M2014 [3]; met 100 mg/l, 24 hours at 30° C.) was 4.4 and 4.7 and the “Optical densities at 600 nm” value ([4]; Met 40 mg/l, XAD4, 42 hours at 30° C.) was 4.4. The OD600 ([4]; Met 100 mg/ml, XAD4, 60 hours at 30° C.) was 1.6 and 1.9, the “Optical densities at 600 nm” value ([4]; met 100 mg/l, XAD4, 24 hours at 30° C.) was 2.4 and 3.0 and the “Optical densities at 600 nm” value [5] was 1.9 and 2.1. For the same compound, the “Optical densities at 600 nm” value [6] was 3.9 and 4.3, the “Optical densities at 600 nm” value (C. glutamicum M2014 [7]) was 4.6 and 4.8 and the “Optical densities at 600 nm” value ([8]; MF + Met 100 mg/l, no oil) was 4.9 and 4.7. The “Optical densities at 600 nm” value ([8]; MF + Met + Mineral Oil) was 1.5 and 1.8, the “Optical densities at 600 nm” value (C. glutamicum M2014 [9]; MF + Met 100 mg/l, no oil) was 4.6 and 4.8 and the “Optical densities at 600 nm” value (C. glutamicum M2014 [9]; MF + Met + Canola Oil) was 3.8 and 3.5. The “Optical densities at 600 nm” value ([10]; MF + Met 100 mg/l, no oil) was 4.9 and 4.7, the “Optical densities at 600 nm” value ([10]; MF + Met + Canola Oil) was 3.7 and 3.0 and the OD600 [11] was 3.2 and 2.7. For the same compound, the OD600 [12] was 1.8 and the OD600 [13] was 1.5 and 1.2.
